Measured values published in patent US20240271180A1, “METHOD FOR DETECTING CONTAMINATING LIPASE ACTIVITY” (BOEHRINGER INGELHEIM INTERNATIONAL GMBH, priority 2020, published 2024).
Each block holds one compound with its values, some of them ahead of it.

What was measured:
[1] = Auto-hydrolysis of 4-MU esters; type: physicochemical; settings: 30 μM, AMT assay buffer, 10 mM CHAPS, pH 5.5, 1800 seconds; compared to e.g. butyrate (4-MUB)
[2] = test system: lipase activity in drug substance samples (Product G, B, F) and UF/DF sample of Product D; experiment: 4-MUD lipase assay with or without CHAPS; type: biochemical; settings: 10 mM CHAPS (above CMC) vs without, 30 μM 4-MUD, pH 5.5
Procedure: First, a surfactant was tested above its CMC (critical micelle concentration). Therefore 10 mM CHAPS were added to the assay. […] The samples tested were drug substance samples comprising Product G, Product B, Product F and a sample following ultrafiltration/diafiltration of Product D, each added at 72 μL per well. […] Without being bound by theory it is hypothesized that a surfactant creates an environment that promotes lipase activity by allowing the rearrangement and opening of the lid or flap, which has been described to cover the active site (Grochulski P, Li Y, Schrag J D, et al. Protein Sci 1994; 3:82-91 and Grochulski P, Bouthillier F, Kazlauskas R J, et al. Biochemistry 1994; 33:3494-500). Therefore, a concentration of 10 mM CHAPS in the final reaction-mix was selected.

[3] = test system: hydrolytic activity of PPL and in BDS B and BDS E; experiment: Comparison of surfactants in 4-MUD lipase assay; type: biochemical; settings: 10 mM CHAPS vs 0.25% Triton X-100 vs 0.25% Triton X-100 and 0.125% gum arabicum, pH 5.5
Procedure: Therefore, hydrolytic activity of PPL (0.024 mg/ml in the reaction mixture) and in BDS B and BDS E (2.4 mg/ml in the reaction mixture) was measured in ATM buffer, pH 5.5, with either 10 mM CHAPS, 0.25% Triton X-100 or 0.25% Triton X-100 and 0.125% gum arabicum. […] Gum arabicum is an emulsifier and no effect of gum arabicum on the activity has been observed in any of the experiments.

[4] = derivable from literature; cited from earlier work
[5] = test system: hydrolytic activity of an exemplary drug product sample; settings: NaCl 7.8125-1000 mM, 30 μM 4-MUD, AMT buffer without NaCl, pH 5.5
[6] = test system: hydrolytic activity of a drug product sample (Product D); experiment: 4-MUD lipase assay with Orlistat; type: biochemical; settings: Orlistat 7.3 nM-20 μM, 30 μM 4-MUD, AMT buffer pH 5.5
[7] = test system: hydrolytic activity responsible for polysorbate degradation in a drug product sample (Product D); experiment: PS20 degradation in drug product, HPLC-CAD; settings: 1 μM Orlistat, 0.2 mg/mL PS20, RT, pH 5.5, up to 56 days, vs control (DMSO only)
[8] = target: T1, PPL (Sus scrofa, UniProt P00591); settings: Jahn et al.; cited from earlier work
T1 sequence (P00591 1-450): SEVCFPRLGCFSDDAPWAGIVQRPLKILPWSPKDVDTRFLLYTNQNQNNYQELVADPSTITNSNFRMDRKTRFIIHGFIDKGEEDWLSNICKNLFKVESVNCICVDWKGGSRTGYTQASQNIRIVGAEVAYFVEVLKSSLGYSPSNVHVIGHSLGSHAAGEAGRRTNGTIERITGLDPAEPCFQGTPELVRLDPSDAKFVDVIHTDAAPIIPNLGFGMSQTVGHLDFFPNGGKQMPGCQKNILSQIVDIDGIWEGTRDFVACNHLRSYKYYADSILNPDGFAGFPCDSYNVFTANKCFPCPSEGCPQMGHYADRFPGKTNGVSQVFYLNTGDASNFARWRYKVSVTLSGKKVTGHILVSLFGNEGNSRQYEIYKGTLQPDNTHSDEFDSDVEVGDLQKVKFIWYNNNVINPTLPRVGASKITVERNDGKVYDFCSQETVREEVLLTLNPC

auto-hydrolysis [1]: better resistance to auto-hydrolysis
Compound: CCCCCCCCCC(=O)Oc1ccc2c(C)cc(=O)oc2c1 [4-MUD, 4-methylumbelliferyl decanoate]

Compound: C[C@H](CCC(=O)NCCC[N+](C)(C)CCCS(=O)(=O)[O-])[C@H]1CC[C@H]2[C@@H]3[C@H](O)C[C@@H]4C[C@H](O)CC[C@]4(C)[C@H]3C[C@H](O)[C@]12C [CHAPS, 3-[(3-cholamidopropyl)dimethylammonio]-1-propanesulfonate]
effect on lipase hydrolysis [2]: lipase hydrolysis was increased | hydrolytic activity compared between surfactants [3]: outperforms Triton X-100 and Triton X-100 and gum arabicum | critical micelle concentration (CMC) [4]: about 6 mM

Compound: C[C@H](CCC(=O)NCCC[N+](C)(C)CC(O)CS(=O)(=O)[O-])[C@H]1CC[C@H]2[C@@H]3[C@H](O)C[C@@H]4C[C@H](O)CC[C@]4(C)[C@H]3C[C@H](O)[C@]12C (stereo partly shown) [CHAPSO, 3-([3-Cholamidopropyl)dimethylammonio]-2-hydroxy-1-propanesulfonate]
critical micelle concentration (CMC) [4]: about 8 mM

Compound: [Cl-].[Na+] [NaCl]
NaCl concentration at which lipase activity decreased [5]: ≥ 250 mM

Compound: CCCCCCCCCCC[C@@H](C[C@@H]1OC(=O)[C@H]1CCCCCC)OC(=O)[C@H](CC(C)C)NC=O [Orlistat]
inhibition of lipase activity [6]: inhibited lipase activity in a concentration dependent manner | degradation of PS20 [7]: reduced degradation of PS20

Compound: CCCCCCCCCCCC[N+](C)(C)CCCS(=O)(=O)[O-] [Zwittergent 3-12, n-Dodecyl-N,N-dimethyl-3-ammonio-1-propanesulfonate]
critical micelle concentration (CMC) [4]: 2 to 4 mM

Compound: polyethylene glycol tert-octylphenyl ether [Triton X-100]
effect on PPL activity [8]: de-activating effect
